Assay results reported in patent US20220356452A1, “INDIRECT THREE-DIMENSIONAL CO-CULTURE OF DORMANT TUMOR CELLS AND USES THEREOF” (University of Delaware, priority 2019, published 2022).

Tests used:
Assay type in all cases: cell-based
T47D cells [1] = assay: Quantitative analysis of viable cells (viability/growth) of BCCs in 3D mono-culture or indirect co-culture with hFOB; details: T47D in 3D culture treated with recombinant human cytokines, vs untreated T47D mono-culture; day 15
Procedure: Significant differences were assessed by ANOVA with Tukey's multiple comparisons test, where differences are shown for comparison between controls and multiple conditions at day 15 time point (*p<0.05, **p<0.01; ***p<0.001). Data are shown represent mean±SD (n=3).

T47D cells [2] = assay: Quantitative analysis of LC3B+ve puncta cells (autophagy) by immunofluorescent staining in 3D culture; details: for autophagy (LC3B+ve puncta cells) with cytokine treatment: T47D in 3D culture, day 15, vs untreated T47D mono-culture
Description: Observations made with the in vitro model system shown here are consistent with in vivo observations in bone in a preclinical model for studying breast cancer dormancy at metastatic sites. a & b, Quantitative analysis of cells positive for LC3B^+ve puncta in images of immunofluorescent staining of autophagic protein (LC3B), cytoplasm (Phalloidin), and DNA (Hoechst) of T47D and BT474 cells in 3D mono-culture or indirect co-culture (#) with different BM niche cells (hFOB or hMSC) analyzed. Induction of autophagy observed in the indirect co-culture condition for T47D or BT474 with hFOB at Day 10 & 15, but not in mono-culture of T47D or co-culture of T47D with hMSC cells. […] In the case of T47D #hMSC insert exchange to #hFOB, induction of autophagy was observed upon insert exchange with similar observations for BT474 cells in these co-cultures. Significant differences assessed by Student's two-sided t-test, where differences shown for comparison between time points in co-culture conditions (*p<0.05, **p<0.01; ***p<0.001). Data are shown represent mean±SD (n=3).
(§1) Significant differences assessed by ANOVA with Tukey's multiple comparisons test, where differences are shown for comparison between controls and multiple conditions at day 15 time point (*p<0.05, **p<0.01; ***p<0.001). Data are shown represent mean±SD (n=3).
Significant differences assessed by one-way ANOVA with Tukey's multiple comparisons test, where differences are shown for comparison between multiple time points (*p<0.05, **p<0.01; ***p<0.001). Data are shown represent mean±SD (n=3).

T47D cells [3] = assay: EdU proliferation assay in 3D mono-culture or indirect co-culture with hFOB; details: T47D in 3D culture, day 15, vs untreated T47D mono-culture
Procedure: Indirect co-culture also enables facile switching to elucidate effects of transition from dormancy-promoting to growth-promoting microenvironments. Breast cancer cell proliferation assessment of over time culture with different conditions in 3D hydrogels: 5-ethynyl-2′-deoxyuridine (EdU) proliferation assay was measured for both T47D & BT474 cells at each time point during 15 days of culture. a & b, Quantification of proliferative (EdU^+ve) T47D & BT474 cells alone (control) or in indirect co-culture (#) with different BM niche cells (hFOB or hMSC). […] Significant differences assessed by Student's two-sided t-test, where differences shown for comparison between time points in mono and co-culture conditions (*p<0.05, **p<0.01; ***p<0.001). e, Quantitative analysis of metabolic activity with AlamarBlue assay of T47D cells after insert exchange at day 10 (fold change relative to day 3). Statistical differences determined with ANOVA with Tukey's multiple comparisons test, where differences are shown for comparison between co-culture conditions on day 15 and 20 (*p<0.05, **p<0.01; ***p<0.001). Data are shown represent mean±SD (n=3).
as §1

Row | Compound | growth (viable cells) with cytokine treatment (T47D cells [1]) | autophagy (LC3B+ve puncta cells) with cytokine treatment (T47D cells [2]) | proliferation rate (EdU+ve cells) with cytokine treatment (T47D cells [3]) | autophagy (LC3B+ve puncta cells) with autophagy inhibitor (T47D cells [2]; T47D #hFOB co-culture, 12.5 pg/mL, 2 doses (Day 6 and Day 14), observation over 25 days)
1 | MCP1: recombinant human MCP1 cytokine | significant growth inhibition | induced autophagosome formation | significantly decreased the proliferation rate | –
2 | TNFa | significant growth inhibition | induced autophagosome formation | significantly decreased the proliferation rate | –
3 | CCN(CCO)CCCC(C)Nc1ccnc2cc(Cl)ccc12 (stereo not shown) [HCQ, hydroxychloroquine, reference compound] | – | – | – | inhibition of autophagy
